Target: human mGluR5 (Homo sapiens, UniProt P41594)
Assay: Cell-based functional assay: Ca2+ mobilization (FDSS), potentiation of glutamate EC20 response
Conditions: HEK cells transfected with human mGluR5 (H10H or H12H cell line); positive allosteric modulation in presence of glutamate EC20
Protocol: Human embryonic kidney (HEK) cells transfected with rat mGluR5 were plated in clear bottom assay plates for assay in a Functional Drug Screening System (FDSS). In the alternative assay, HEK cells transfected with human mGluR5 were plated for assay in the FDSS. In some cases the HEK cells transfected with human mGluR5 were the H10H cell line. Alternatively, the HEK cells transfected with human mGluR5 were the H12H cell line. […] The cells were loaded with a Ca^2+-sensitive fluorescent dye (e.g., Fluo-4), and the plates were washed and placed in the FDSS instrument. After establishment of a fluorescence baseline for twelve seconds, the compounds of the present invention were added to the cells, and the response in cells was measured. Alternatively, in various further aspects, after establishment of a fluorescence baseline for about three seconds, the compounds of the present invention were added to the cells, and the response in cells was measured. Five minutes later, an mGluR5 agonist (e.g., glutamate, 3,5-dihydroxyphenylglycine, or quisqualate) was added to the cells, and the response of the cells was measured. Potentiation of the agonist response of mGluR5 by the compounds in the present invention was observed as an increase in response to non-maximal concentrations of agonist (here, glutamate) in the presence of compound compared to the response to agonist in the absence of compound.
The above described assay operated in two modes. In the first mode, a range of concentrations of the present compounds were added to cells, followed by a single fixed concentration of agonist. If a compound acted as a potentiator, an EC50 value for potentiation and a maximum extent of potentiation by the compound at this concentration of agonist was determined by non-linear curve fitting. In the second mode, several fixed concentrations of the present compounds were added to various wells on a plate, followed by a range of concentrations of agonist for each concentration of present compound; the EC50 values for the agonist at each concentration of compound were determined by non-linear curve fitting. A decrease in the EC50 value of the agonist with increasing concentrations of the present compounds (a leftward shift of the agonist concentration-response curve) is an indication of the degree of mGluR5 potentiation at a given concentration of the present compound. An increase in the EC50 value of the agonist with increasing concentrations of the present compounds (a rightward shift of the agonist concentration-response curve) is an indication of the degree of mGluR5 antagonism at a given concentration of the present compound. The second mode also indicates whether the present compounds also affect the maximum response to mGluR5 to agonists.
Table 1 below lists specific compounds as well as experimentally determined mGluR5 activity determined in a cell-based assay. The examples shown in Table I are provided so that the invention might be more fully understood, and these examples are illustrative only and should not be construed as limiting the invention in any way. The mGluR5 activity was determined using the metabotropic glutamate receptor activity assays in human embryonic kidney cells as described herein, wherein the human embryonic kidney cells were transfected with human mGluR5. The compounds in Table 1 were synthesized with methods identical or analogous to those shown herein. The column labeled “Rxn” and the data thereunder indicated in Table 1 refers to the Reaction Scheme number described above. The requisite starting materials were commercially available, described in the literature, or readily synthesized by one skilled in the art of organic synthesis. Compounds shown in Table I are depicted having a basic group or acidic group and named as the free base acid. […]

Sequence of human mGluR5 (P41594 21-1180 isoform P41594-2 limits assumed): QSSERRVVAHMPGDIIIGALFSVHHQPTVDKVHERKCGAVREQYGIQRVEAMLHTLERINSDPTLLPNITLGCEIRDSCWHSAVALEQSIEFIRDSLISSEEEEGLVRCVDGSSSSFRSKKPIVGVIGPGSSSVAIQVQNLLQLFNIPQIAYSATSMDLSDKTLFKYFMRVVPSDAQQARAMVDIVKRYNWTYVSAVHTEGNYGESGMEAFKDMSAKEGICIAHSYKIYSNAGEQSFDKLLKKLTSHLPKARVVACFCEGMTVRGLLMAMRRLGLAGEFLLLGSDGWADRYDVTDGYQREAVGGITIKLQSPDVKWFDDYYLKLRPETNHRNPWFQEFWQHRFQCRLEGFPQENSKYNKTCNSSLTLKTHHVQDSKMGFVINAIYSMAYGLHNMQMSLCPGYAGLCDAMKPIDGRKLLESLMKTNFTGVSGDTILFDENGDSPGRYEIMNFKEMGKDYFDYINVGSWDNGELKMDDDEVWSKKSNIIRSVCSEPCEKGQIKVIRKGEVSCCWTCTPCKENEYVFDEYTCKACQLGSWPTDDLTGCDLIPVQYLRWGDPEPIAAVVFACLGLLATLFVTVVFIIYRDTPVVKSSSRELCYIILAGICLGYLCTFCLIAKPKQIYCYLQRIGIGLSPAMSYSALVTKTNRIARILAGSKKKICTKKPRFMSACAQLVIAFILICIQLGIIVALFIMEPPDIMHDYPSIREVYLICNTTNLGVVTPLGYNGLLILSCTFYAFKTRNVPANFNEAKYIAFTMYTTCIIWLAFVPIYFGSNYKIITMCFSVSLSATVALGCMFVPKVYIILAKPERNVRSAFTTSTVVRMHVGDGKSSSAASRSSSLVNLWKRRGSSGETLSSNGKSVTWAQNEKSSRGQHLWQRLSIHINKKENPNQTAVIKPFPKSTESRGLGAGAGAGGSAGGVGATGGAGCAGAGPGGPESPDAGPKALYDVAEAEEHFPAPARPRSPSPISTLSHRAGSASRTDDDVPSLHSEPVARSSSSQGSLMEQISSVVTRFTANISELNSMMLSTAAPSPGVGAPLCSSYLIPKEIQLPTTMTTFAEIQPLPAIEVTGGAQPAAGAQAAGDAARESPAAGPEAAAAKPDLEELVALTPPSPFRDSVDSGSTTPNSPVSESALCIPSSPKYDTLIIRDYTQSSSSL

| SMILES | EC50 [nM] |
| --- | --- |
| O=C(c1ccc(F)cc1)N1CCc2ncc(COc3ccc(F)cc3)cc2C1 [Compound 3, (3-((4-fluorophenoxy)methyl)-7,8-dihydro-1,6-naphthyridin-6(5H)-yl)(4-fluorophenyl)methanone] | 910 |
| CC(C)(C)OC(=O)N1CCc2ncc(OCc3cccc(F)c3)cc2C1 [Compound 4] | > 30000 |
| O=C(c1cccc(F)c1)N1CCc2ncc(OCc3cccc(F)c3)cc2C1 [Compound 5] | > 30000 |
| O=C(C1CC1)N1CCc2ncc(OCc3cccc(F)c3)cc2C1 [Compound 6] | > 30000 |

Compounds with a lower EC50, results first:

| EC50 [nM] | SMILES |
| --- | --- |
| 690 | O=C(c1ccc(F)cc1)N1CCc2ncc(COc3cccc(F)c3)cc2C1 [Compound 2, (3-((3-fluorophenoxy)methyl)-7,8-dihydro-1,6-naphthyridin-6(5H)-yl) (4-fluorophenyl)methanone] |
| 380 | O=C(c1ccc(F)cc1)N1CCc2ncc(COc3ccccc3)cc2C1 [Compound 1, (4-Fluorophenyl)(3-(phenoxymethyl)-7,8-dihydro-1,6-naphthyridin-6(5H)-yl)methanone] |
